Entries after “also recorded” stand apart in the source; their conditions may differ. Values belong to the compound of their own block, whether it stands above or below them.
How the values were obtained:
TrkB [1] = target: TrkB (Rattus norvegicus, UniProt Q63604); assay: TrkB activation in primary cortical cultures; assay type: cell-based; conditions: 500 nM, 15 min; for TrkB activation (agonistic activity): primary cortical cultures from E17 rat embryos, p-TrkB immunoblotting (Figure 2B); for TrkB and Akt activation in primary neurons: rat primary neurons, immunoblotting and p-Akt ELISA (Figure 4B)
Chain of TrkB (Rattus norvegicus, UniProt Q63604) (Q63604 32-821): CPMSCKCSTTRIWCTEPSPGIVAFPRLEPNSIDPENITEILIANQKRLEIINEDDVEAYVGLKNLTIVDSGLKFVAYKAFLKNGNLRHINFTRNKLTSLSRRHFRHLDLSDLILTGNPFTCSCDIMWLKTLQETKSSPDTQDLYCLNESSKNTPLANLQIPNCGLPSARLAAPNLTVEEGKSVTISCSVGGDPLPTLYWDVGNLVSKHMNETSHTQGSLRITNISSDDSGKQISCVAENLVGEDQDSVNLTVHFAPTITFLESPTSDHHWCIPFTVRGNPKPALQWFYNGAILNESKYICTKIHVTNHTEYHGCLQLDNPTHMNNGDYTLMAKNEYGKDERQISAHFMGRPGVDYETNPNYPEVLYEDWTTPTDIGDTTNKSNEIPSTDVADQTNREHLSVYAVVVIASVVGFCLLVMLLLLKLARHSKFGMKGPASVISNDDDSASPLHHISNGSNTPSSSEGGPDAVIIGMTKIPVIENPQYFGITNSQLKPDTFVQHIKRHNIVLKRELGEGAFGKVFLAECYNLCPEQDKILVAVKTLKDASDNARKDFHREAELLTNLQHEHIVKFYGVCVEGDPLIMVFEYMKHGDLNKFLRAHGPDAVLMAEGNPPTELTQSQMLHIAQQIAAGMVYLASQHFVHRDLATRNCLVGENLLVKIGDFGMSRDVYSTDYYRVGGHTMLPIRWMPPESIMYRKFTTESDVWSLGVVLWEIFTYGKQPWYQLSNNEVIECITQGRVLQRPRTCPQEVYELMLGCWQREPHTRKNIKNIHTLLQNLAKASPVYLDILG

male C57BL/6J mice [2] = assay: Forced swim test; assay type: in vivo; conditions: for immobility in forced swim test: 5 mg/kg oral once a day for 21 days
HepG2 cells = assay: Comet assay; assay type: cell-based, human; conditions: 100 μM, 24 h
p-Akt and p-MAPK = assay: Downstream p-Akt and p-MAPK signaling in mouse brain; assay type: in vivo, C57 BL/6J mice; conditions: hippocampus; for downstream p-Akt and p-MAPK signalings: 1 mg/kg oral, 4 h; for downstream p-Akt activity: 2.5 mg/kg oral, 3 weeks
TrkB [3] = target: T1, TrkB (Mus musculus, UniProt P15209); assay: TrkB activation in mouse brain after chronic oral treatment; assay type: in vivo, C57 BL/6J mice; conditions: for TrkB phosphorylation in cortex and hippocampus: 5 mg/kg oral, vs vehicle; for TrkB phosphorylation in cortex and hippocampus / TrkB activation in brain tissues (anti-p-TrkB Y816 and Y706 immunoblotting): 3 weeks; for TrkB activation in brain tissues (anti-p-TrkB Y816 and Y706 immunoblotting) / TrkB phosphorylation in hippocampus (immunohistochemistry, anti-p-TrkB 816): 2.5 mg/kg oral; for TrkB activation in brain tissues (anti-p-TrkB Y816 and Y706 immunoblotting): after behavioral tests; for TrkB phosphorylation in hippocampus (immunohistochemistry, anti-p-TrkB 816): chronic, brain sections
T1 sequence (P15209 32-821): as the sequence (Q63604 32-821) above, with M3T, T9S, T10A, I32V, K63R, G84S, T153M, I185L, T394S, N770S counted along it

male C57BL/6J mice [4] = assay: Locomotor activity assay; assay type: in vivo
TrkA receptor = TrkA receptor (Mus musculus, UniProt Q3UFB7); assay: TrkA activation in mouse brain after chronic oral treatment; assay type: in vivo, mice; conditions: 5 mg/kg oral, anti-p-TrkA 794
Chain of TrkA receptor (Q3UFB7 34-799): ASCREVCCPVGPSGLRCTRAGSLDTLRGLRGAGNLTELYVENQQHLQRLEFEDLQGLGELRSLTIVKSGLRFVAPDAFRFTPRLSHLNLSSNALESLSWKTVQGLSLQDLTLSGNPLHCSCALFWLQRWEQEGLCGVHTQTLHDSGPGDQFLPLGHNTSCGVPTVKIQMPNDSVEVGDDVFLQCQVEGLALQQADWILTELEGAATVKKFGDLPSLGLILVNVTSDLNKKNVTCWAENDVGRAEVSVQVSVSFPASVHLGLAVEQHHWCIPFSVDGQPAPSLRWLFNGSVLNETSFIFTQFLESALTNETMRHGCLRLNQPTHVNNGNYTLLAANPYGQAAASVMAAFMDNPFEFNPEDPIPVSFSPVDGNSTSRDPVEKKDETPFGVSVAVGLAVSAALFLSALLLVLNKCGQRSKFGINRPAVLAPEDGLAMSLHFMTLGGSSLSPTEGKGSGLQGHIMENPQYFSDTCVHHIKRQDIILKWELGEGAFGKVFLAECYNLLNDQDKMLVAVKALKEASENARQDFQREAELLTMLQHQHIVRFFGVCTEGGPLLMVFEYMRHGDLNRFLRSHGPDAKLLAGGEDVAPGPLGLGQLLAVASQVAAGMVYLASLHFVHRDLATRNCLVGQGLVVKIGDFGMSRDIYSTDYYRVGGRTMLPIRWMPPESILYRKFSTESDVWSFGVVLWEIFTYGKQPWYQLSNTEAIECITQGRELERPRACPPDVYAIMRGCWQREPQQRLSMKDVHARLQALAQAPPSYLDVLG

TrkB [5] = target: T1, TrkB; assay: TrkB activation in mouse brain after single oral administration; assay type: in vivo, C57 BL/6J mice; conditions: 1 mg/kg oral; for TrkB activation in mouse brain: hippocampus
[6] = In vivo pharmacokinetic studies in mice
[7] = Preliminary in vivo metabolism study; conditions: Supplemental Figure 2
P-Akt S473 = P-Akt S473 ELISA in drug-treated mouse brain; assay type: in vivo, C57 BL/6J mice; conditions: 1 mg/kg oral, time course
male C57BL/6J mice [8] = assay: Tail suspension test; assay type: in vivo; conditions: 2.5 mg/kg oral once a day for 3 weeks
[9] = Human plasma protein binding; assay type: in vitro ADME; conditions: 5 μM
[10] = Reactive metabolite screening; assay type: in vitro ADME; conditions: reactive metabolic screening
hERG = hERG (Homo sapiens, UniProt Q12809); assay: hERG inhibition assay; assay type: in vitro ADME
Chain of hERG (Q12809 whole entry): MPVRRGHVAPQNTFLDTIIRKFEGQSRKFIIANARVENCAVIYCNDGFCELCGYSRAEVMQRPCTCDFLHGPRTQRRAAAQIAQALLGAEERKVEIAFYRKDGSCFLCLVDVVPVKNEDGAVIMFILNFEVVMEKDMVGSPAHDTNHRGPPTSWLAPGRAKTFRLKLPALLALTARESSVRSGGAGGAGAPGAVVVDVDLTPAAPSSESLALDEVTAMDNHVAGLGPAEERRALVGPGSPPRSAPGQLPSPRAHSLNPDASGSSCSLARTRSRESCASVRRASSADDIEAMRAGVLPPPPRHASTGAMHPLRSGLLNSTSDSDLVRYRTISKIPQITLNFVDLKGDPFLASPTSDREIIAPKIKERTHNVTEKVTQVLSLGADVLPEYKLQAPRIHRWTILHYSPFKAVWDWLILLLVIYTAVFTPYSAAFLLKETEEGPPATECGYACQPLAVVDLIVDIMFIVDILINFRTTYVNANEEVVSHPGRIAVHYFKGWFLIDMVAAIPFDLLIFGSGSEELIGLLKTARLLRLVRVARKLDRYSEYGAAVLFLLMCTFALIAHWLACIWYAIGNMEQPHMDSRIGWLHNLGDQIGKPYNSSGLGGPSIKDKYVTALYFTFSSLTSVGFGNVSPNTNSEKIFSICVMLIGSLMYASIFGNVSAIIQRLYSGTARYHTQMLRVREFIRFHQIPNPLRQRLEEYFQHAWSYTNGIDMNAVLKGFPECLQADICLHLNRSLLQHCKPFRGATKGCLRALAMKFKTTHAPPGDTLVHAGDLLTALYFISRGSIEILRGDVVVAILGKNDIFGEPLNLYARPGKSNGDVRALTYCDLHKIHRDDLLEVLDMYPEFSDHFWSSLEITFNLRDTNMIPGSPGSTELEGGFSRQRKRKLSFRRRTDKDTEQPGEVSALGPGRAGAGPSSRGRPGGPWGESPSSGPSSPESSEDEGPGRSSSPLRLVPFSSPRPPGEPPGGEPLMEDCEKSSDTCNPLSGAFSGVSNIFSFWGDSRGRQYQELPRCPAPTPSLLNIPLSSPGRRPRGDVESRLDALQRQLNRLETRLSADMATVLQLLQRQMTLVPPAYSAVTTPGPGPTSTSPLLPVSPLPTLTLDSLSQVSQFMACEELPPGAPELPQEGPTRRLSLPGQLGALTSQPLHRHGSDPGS

[11] = 5 mg/kg oral for 21 days, tested at day 22
[12] = 2.5 mg/kg oral once a day for 3 weeks

Compound: O=c1cc(-c2ccc(N3CCOCC3)cc2)oc2c(O)c(O)ccc12 [compound 29, 4′-morpholino-7,8-DHF]
TrkB activation (agonistic activity) (TrkB [1]): comparable activity as the lead compound 24

Compound: CN(C)c1cccc(-c2cc(=O)c3ccc(O)c(O)c3o2)c1 [compound 28, 3′-dimethylamino-7,8-DHF]
TrkB activation (agonistic activity) (TrkB [1]): comparable activity as the lead compound 24

Compound: CN(C)c1ccc(-c2cc(=O)c3ccc4nc[nH]c4c3o2)cc1 [compound 11, 8-(4′-(Dimethylamino)phenyl)chromeno[7,8-d]imidazol-6(1H)-one]
immobility in forced swim test (male C57BL/6J mice [2]): significantly reduced the immobility | DNA lesions (Comet assay) (HepG2 cells): induced DNA lesions | TrkB activation (agonistic activity) (TrkB [1]): stronger effect in triggering TrkB activation than the lead compound | downstream p-Akt and p-MAPK signalings (p-Akt and p-MAPK): activated | TrkB phosphorylation in cortex and hippocampus (TrkB [3]): clearly escalated TrkB phosphorylation | locomotor activity (male C57BL/6J mice [4]; [11]): substantially augmented locomoter activity; also recorded: significantly increased the locomotor activity | TrkA activation in mouse brain (TrkA receptor): TrkB but not TrkA is activated | TrkB activation in mouse brain (TrkB [5]; 4 h): robustly activated TrkB; also recorded: strongest TrkB stimulatory effect | time at which TrkB activation faded away (TrkB [5]; time course): 16 h | time of peak TrkB activation in mouse brain (TrkB [5]; time course): 4 h

Compound: O=c1cc(-c2ccccc2)oc2c(O)c(O)ccc12 [7,8-DHF, 7,8-dihydroxyflavone]
in vivo metabolic pathways [7]: subjected to oxidation, glucuronidation, sulfation and methylation

Compound: O=c1cc(-c2ccccc2)oc2c(O)c(O)cc(F)c12 [compound 33]
TrkB activation (agonistic activity) (TrkB [1]): did not significantly affect 7,8-DHF’s TrkB agonistic activity

Compound: CN(C)c1ccc(-c2cc(=O)c3c(F)cc(O)c(O)c3o2)cc1 [compound 35]
TrkB activation (agonistic activity) (TrkB [1]): did not significantly affect 7,8-DHF’s TrkB agonistic activity

Compound: Cc1nc2ccc3c(=O)cc(-c4ccc(N5CCCC5)cc4)oc3c2[nH]1 [compound 13, 2-methyl-8-(4-(pyrrolidin-1-yl)phenyl)chromeno[7,8-d]imidazol-6(1H)-one]
ACINF ([6]; PO, 10 mg/kg): 1293 ng·min/mL | immobility in tail suspension test (male C57BL/6J mice [8]): significantly reducing the immobility | Binding classification [9]: High Binding | TrkB and Akt activation in primary neurons (TrkB [1]): higher activity than compound 11 in triggering TrkB and Akt activation | downstream p-Akt activity (p-Akt and p-MAPK): upregulated | adduct formation (Comment) [10]: quite stable in vitro; also recorded: No adduct detected | TrkB activation in brain tissues (anti-p-TrkB Y816 and Y706 immunoblotting) (TrkB [3]): markedly activated TrkB | TrkB phosphorylation in hippocampus (immunohistochemistry, anti-p-TrkB 816) (TrkB [3]): elevated TrkB phosphorylation in hippocampus | locomotor activity (male C57BL/6J mice [4]; [12]): neither compound 13 nor 23 altered the motion activity | hERG inhibition (hERG): did not possess any concentration-dependent inhibition activity of hERG; also recorded: trifling | TrkB activation in mouse brain (TrkB [5]; 2 h): triggers TrkB activation in mouse brain

Compound: O=c1cc(-c2ccc(N3CCCC3)cc2)oc2c1ccc1cc[nH]c12 [compound 23, 2-(4-(Pyrrolidin-1-yl)phenyl)pyrano[3,2-g]indol-4(9H)-one]
immobility in tail suspension test (male C57BL/6J mice [8]): lacked efficacy | Binding classification [9]: High Binding | reduction of immobility in FST compared to vehicle control (male C57BL/6J mice [2]; 2.5 mg/kg oral gavage once a day for 3 weeks): had no effect | TrkB and Akt activation in primary neurons (TrkB [1]): higher activity than compound 11 in triggering TrkB and Akt activation | downstream p-Akt activity (p-Akt and p-MAPK): upregulated | adduct formation (Comment) [10]: formed numerous adducts | TrkB activation in brain tissues (anti-p-TrkB Y816 and Y706 immunoblotting) (TrkB [3]): markedly activated TrkB | TrkB phosphorylation in hippocampus (immunohistochemistry, anti-p-TrkB 816) (TrkB [3]): elevated TrkB phosphorylation in hippocampus | locomotor activity (male C57BL/6J mice [4]; [12]): neither compound 13 nor 23 altered the motion activity

Compound: O=c1c(F)c(-c2ccccc2)oc2c(O)c(O)ccc12 [compound 34]
TrkB activation (agonistic activity) (TrkB [1]): did not significantly affect 7,8-DHF’s TrkB agonistic activity

The next lines start with results.

Bioavailability ([6]; PO, 5 mg/kg): not measurable | AUC(0-t) ([6]; mouse, plasma, iv, 1 mg/kg, AUClast): ~98.8 ng·h/mL | half-life ([6]; mouse, plasma, iv, 1 mg/kg, T1/2, IV): ~9 min
Compound: CN(C)c1ccc(-c2cc(=O)c3ccc(O)c(O)c3o2)cc1 [compound 24, 4′-dimethylamino-7,8-dihydroxyflavone]
downstream p-Akt and p-MAPK signalings (p-Akt and p-MAPK): activated | TrkB activation in mouse brain (TrkB [5]; 4 h): clearly activated the TrkB receptor; also recorded: strongest TrkB stimulatory effect

TrkB phosphorylation in cortex and hippocampus (TrkB [3]): clearly escalated TrkB phosphorylation | TrkA activation in mouse brain (TrkA receptor): TrkB but not TrkA is activated | time of peak TrkB activation in mouse brain (TrkB [5]; time course): 1 to 2 h
Compound: O=c1c(F)c(-c2cccc(O)c2)oc2c(O)c(O)ccc12 [compound 32]
time at which p-Akt returned to the baseline (P-Akt S473): 8 h | time of peak p-Akt activation (ELISA) (P-Akt S473; 20 μg brain lysates): 1 h | immobility in forced swim test (male C57BL/6J mice [2]): significantly reduced the immobility | TrkB activation (agonistic activity) (TrkB [1]): did not significantly affect 7,8-DHF’s TrkB agonistic activity; also recorded: barely affects TrkB stimulatory activity | locomotor activity (male C57BL/6J mice [4]; [11]): but not 32 significantly increased the locomotor activity | TrkB activation in mouse brain (time course comparison) (TrkB [5]; various time points): less effect on TrkB activation than compound 11

TrkB activation (agonistic activity) (TrkB [1]): inhibited its activity
Compound: O=c1cc(-c2ccc(F)cc2)oc2c(O)c(O)ccc12 [compound 30]

TrkB activation (agonistic activity) (TrkB [1]): diminished agonistic activity
Compound: O=c1cc(-c2ccccc2)[nH]c2c(O)c(O)ccc12 [compound 26]

TrkB activation (agonistic activity) (TrkB [1]): diminished agonistic activity
Compound: O=c1cc(-c2ccc(F)cc2)[nH]c2c(O)c(O)ccc12 [compound 25]
